Source: patent publication US20230339970A1, “CASEIN KINASE 1 DELTA MODULATORS” (priority 2020, published 2023)

Tests used:
human CSNK1D = target: T1, human CSNK1D (Homo sapiens, UniProt P48730); test: Whole Cell nBRET CSNK1D Binding Assay; settings: living CHO cells stably expressing human CSNK1D tagged with nanoluciferase; NanoBret tracer 130 nM; 2 hours at 37 C
T1 construct: expressed in transfected cells

[1] = target: T2, human recombinant GST cleaved CSNK1D (Homo sapiens, UniProt P48730); test: Purified Enzyme Assay (ADP-Glo CSNK1D Kinase Assay); type: biochemical; settings: 2 nM CSNK1D; peptide substrate 150 μM; ATP 20 μM; 45 minutes at room temperature
T2 construct: GST (cleaved yes); purchased University of Dundee clone DU 19064
T2 sequence (P48730 whole entry): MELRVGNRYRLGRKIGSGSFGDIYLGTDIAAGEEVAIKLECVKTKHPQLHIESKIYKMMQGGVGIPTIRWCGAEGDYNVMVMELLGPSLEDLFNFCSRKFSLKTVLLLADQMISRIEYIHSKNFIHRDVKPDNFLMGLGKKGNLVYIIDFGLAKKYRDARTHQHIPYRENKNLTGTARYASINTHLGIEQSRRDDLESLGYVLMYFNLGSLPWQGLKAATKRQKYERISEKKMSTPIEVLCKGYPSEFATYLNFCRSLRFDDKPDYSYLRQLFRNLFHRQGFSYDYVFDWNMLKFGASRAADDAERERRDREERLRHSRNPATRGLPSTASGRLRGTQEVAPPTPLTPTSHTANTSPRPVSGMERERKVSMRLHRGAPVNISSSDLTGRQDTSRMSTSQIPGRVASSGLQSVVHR
Protocol: In this assay, CSNK1D phosphorylates a substrate peptide PLSRTL-pS-VASLPGL in the presence of ATP. […] This assay monitors CSNK1D kinase activity by measuring the amount of ADP produced in the assay.
The substrate mix is added to each well of a low volume, 384-well, white opaque plate. Test compounds were diluted in HBSS and added in a dose-response to the plate.
The total volume of each reaction is 5 ul (2 μL of substrate mix, 1 μL of diluted compounds, and 2 μL of human recombinant CSNK1D). The plates are incubated for 45 minutes at room temperature.
ADP was quantified using the ADP-Glo™ Kinase Assay. ADP-Glo Reagent (5 μL) was added to each well. After a 1 hour incubation at room temperature, Kinase Detection Reagent (10 μL) was added to each well and incubated for 30 minutes. […] The raw data from the Envision is used to calculate percent activity.

T1 sequence (P48730 whole entry): as above

CC(=O)Nc1cc(-c2c(-c3ccc(F)cc3)nn3c2CCC2C3C2(F)F)ccn1 (racemic) [Example 348, N-(4-(6,6-Difluoro-2-(4-fluorophenyl)-5,5a,6,6a-tetrahydro-4H-cyclopropa[e]pyrazolo[1,5-a]pyridin-3-yl)pyridin-2-yl)acetamide]
IC50 (human CSNK1D): 3 nM
IC50 [1]: 1 nM

C[C@H]1OCc2c(-c3ccnc4[nH]ncc34)c(-c3ccc(F)cc3)nn2[C@H]1C (relative stereo) [Example 112, (6*R,7*S)-2-(4-Fluorophenyl)-6,7-dimethyl-3-(1H-pyrazolo[3,4-b]pyridin-4-yl)-6,7-dihydro-4H-pyrazolo[5,1-c][1,4]oxazine]
IC50 (human CSNK1D): 54 nM
IC50 [1]: 3 nM

C[C@@H]1[C@@H](C)OCc2c(-c3ccnc4[nH]ncc34)c(-c3ccc(F)cc3)nn21 (relative stereo) [Example 114, (6*R,7*R)-2-(4-Fluorophenyl)-6,7-dimethyl-3-(1H-pyrazolo[3,4-b]pyridin-4-yl)-6,7-dihydro-4H-pyrazolo[5,1-c][1,4]oxazine]
IC50 (human CSNK1D): 55 nM
IC50 [1]: 6 nM

Cc1cc(-c2c(-c3ccc(F)cc3)nn3c2[C@@H]2C[C@@H]2C3)c2cn[nH]c2n1 (relative stereo) [Example 276, (3b*R,4a*S)-2-(4-Fluorophenyl)-3-(6-methyl-1H-pyrazolo[3,4-b]pyridin-4-yl)-3b,4,4a,5-tetrahydrocyclopropa[3,4]pyrrolo[1,2-b]pyrazole]
IC50 (human CSNK1D): 6 nM
IC50 [1]: 1 nM

Cc1nc(-c2c(-c3ccc(F)cn3)nn3c2CC[C@@H]2C[C@@H]23)c2cn[nH]c2n1 (relative stereo) [Example 347, (5a*R,6a*S)-2-(5-fluoropyridin-2-yl)-3-(6-methyl-1H-pyrazolo[3,4-d]pyrimidin-4-yl)-5,5a,6,6a-tetrahydro-4H-cyclopropa[e]pyrazolo[1,5-a]pyridine]
IC50 (human CSNK1D): 573 nM
IC50 [1]: 35 nM

CC1CCCc2c(-c3ccnc4[nH]ncc34)c(-c3ccc(F)cc3)nn21 (single isomer, unassigned) [Example 39, (*R)-4-[2-(4-Fluorophenyl)-7-methyl-4,5,6,7-tetrahydropyrazolo[1,5-a]pyridin-3-yl]-1H-pyrazolo[3,4-b]pyridine]
IC50 (human CSNK1D): 39 nM
IC50 [1]: 4 nM

C[C@H]1CCCc2c(-c3ccnc4[nH]ncc34)c(-c3ccc(F)cc3)nn21 (single isomer, unassigned) [Example 40, (*S)-4-[2-(4-Fluorophenyl)-7-methyl-4,5,6,7-tetrahydropyrazolo[1,5-a]pyridin-3-yl]-1H-pyrazolo[3,4-b]pyridine]
IC50 (human CSNK1D): 41 nM
IC50 [1]: 4 nM

C[C@]1(CF)CCc2c(-c3ccnc4[nH]ncc34)c(-c3ccc(F)cn3)nn2C1 (single isomer, unassigned) [Example 51, (*)-4-[6-(Fluoromethyl)-2-(5-fluoro-2-pyridyl)-6-methyl-5,7-dihydro-4H-pyrazolo[1,5-a]pyridin-3-yl]-1H-pyrazolo[3,4-b]pyridine]
IC50 (human CSNK1D): 11 nM
IC50 [1]: 1 nM

C[C@@]1(CF)CCc2c(-c3ccnc4[nH]ncc34)c(-c3ccc(F)cn3)nn2C1 (single isomer, unassigned) [Example 52, (*R)-4-[6-(Fluoromethyl)-2-(5-fluoro-2-pyridyl)-6-methyl-5,7-dihydro-4H-pyrazolo[1,5-a]pyridin-3-yl]-1H-pyrazolo[3,4-b]pyridine]
IC50 (human CSNK1D): 11 nM
IC50 [1]: 1 nM

COC[C@]1(F)CCc2c(-c3cc(C)nc4[nH]ncc34)c(-c3ccc(F)cn3)nn2C1 (single isomer, unassigned) [Example 53, (*S)-4-(6-Fluoro-2-(5-fluoropyridin-2-yl)-6-(methoxymethyl)-4,5,6,7-tetrahydropyrazolo[1,5-a]pyridin-3-yl)-6-methyl-1H-pyrazolo[3,4-b]pyridine]
IC50 (human CSNK1D): 31 nM
IC50 [1]: 4 nM
